Experimental data from publication PMC6804243, “Small-Molecule Inhibition of UBE2T/FANCL-Mediated Ubiquitylation in the Fanconi Anemia Pathway” (ACS Chemical Biology, 2019).

Columns and labels:
U2OS cells [1] = assay: IncuCyte cell proliferation assay; assay type: cell-based
Protocol: Figure 4 Further cell-based assays with CU1 and CU2: (a, b) Representative immunofluorescence images of U2OS cells treated with HU (2.5 mM, 8 h) or cisplatin (10 μM, 8 h) in the presence or absence of CU1 (200 μM) or CU2 (500 μM). (c) Quantification of the number of FANCD2 foci in cells treated as in panels (a) and (b). Data accumulated over three independent experiments, each consisting of three technical replicas. (d) IncuCyte analysis of U2OS cells treated with or without carboplatin (15 μM) and CU2 (250 μM). Mean calculated from three wells, four images per well. (HU = DMSO + HU, cisplatin = DMSO + cisplatin).
Finally, to investigate if CU1 and CU2 could sensitize cells to a more clinically relevant chemotherapeutic agent, quantitative live cell analyses were performed using the IncuCyte platform. As the FA pathway is involved in the repair of ICLs, cells were treated with the ICL-inducing chemotherapeutic drug, carboplatin. For this experiment, U2OS cells were seeded at a relatively low (<10%) density and preincubated with CU1 or CU2 for 1 h. Carboplatin was then added to the cells and images were taken every 6 h for 8 days in order to monitor growth and proliferation of the cells.
Reaction mixtures were incubated for the indicated time at 37 °C and stopped by the addition of 2X reducing SDS -PAGE sample buffer, separated on NuPAGE Novex 4 –12% Bis/Tris gradient gels (Invitrogen) and visualized by Western blotting using the indicated antibodies (Table S3).
Cell culture. U2OS cells were cultured at 37 °C in a humidified atmosphere and 5% (v/v) CO2 in Dulbecco's Modified Eagle Medium (DMEM; Sigma-Aldrich) supplemented with 10% (v/v) fetal bovine serum (FBS), 100 units/ml of penicillin, […] of streptomycin and 292 μg/mL L-glutamine.
Cell extract preparation and immunoblotting. U2OS cells were lysed in buffer containing 50 mM Tris-HCl pH 7.5, 2% SDS, 10 mM NEM, cocktail protease inhibitor (Roche) and phosphatase inhibitor cocktail followed by sonication 100 µg of extracts were boiled for 5 mins at 95 °C in 5X loading buffer and loaded onto NuPAGE Novex 4–12% Bis/Tris gradient gels
(Invitrogen), or NuPAGE Novex 3-8% Tris/Acetate gradient gels (Invitrogen) for detection of mUb-FANCD2. After separation the gels were transferred to PVDF and the membranes were blocked with Tris-buffered saline containing 0.1% (v/v) Tween-20 (TBST) and 5% (v/v) bovine serum albumin (BSA) and incubated with the indicated primary and secondary antibodies. mUb-FANCD2 intensity was quantified using Image Studio (LI-COR).
IncuCyte cell proliferation assays. 2000 U2OS cells were seeded per well in 96-well plates and treated with compounds 24 hours afterwards. After 1 hour of compound treatment, 15 µM carboplatin (Sigma-Aldrich) was added and the cells were cultured in an incubator with an IncuCyte microscopy -platform (Essen BioScience). Phase -contrast images were acquired every 6 hours for 8 days until DMSO-carboplatin treated cells reached >80% confluence. Cell proliferation was monitored as the occupied area (% confluence) of cell images over time and calculated as percentage confluence over time. Cell confluency percentages were calculated using the integrated Cell Player software and results were analysed with Prism 6 (GraphPad Software).

U2OS cells [2] = assay: Tolerance / cytotoxicity of compounds in U2OS cells; assay type: cell-based; conditions: compound at 500 μM, 8 h assay
Protocol: U2OS cells were treated with HU and the formation of mUb-FANCD2 in the presence of CU 1, CU2, and CU9 was evaluated relative to a DMSO control. Following a 1-h preincubation with the compounds, cells were treated with 2.5 mM of HU for 24 h. […] Accordingly, cells were treated with a higher concentration of compounds in further experiments.

Compound | combined effect with carboplatin on cell growth (U2OS cells [1]; 50 μM CU1 with 15 μM carboplatin) | concentrations that strongly inhibit cell growth (U2OS cells [1]; IncuCyte) [µM] | confluency (U2OS cells [1]; 250 μM CU2 combined with 15 μM carboplatin, after 8 days) [%] | effect on cell growth (U2OS cells [1]; CU2 250 μM alone) | confluency (U2OS cells [1]; CU2 250 μM alone, after 6 days) [%] | effect on cells upon longer cellular exposures (U2OS cells [1]; CU2 500 μM, IncuCyte, up to 8 days) | tolerance by cells (U2OS cells [2])
NCCN1C(=O)CC[C@H]2CN(Cc3cccc(-c4ccco4)c3)CC[C@H]21 [CU1] | far less pronounced than that observed for CU2 | > 50 | – | – | – | – | –
CCN1CCN(c2cc(C)nc3nc(CN4CCCCC4C)nn23)CC1 (centres unmarked) [CU2] | – | – | < 50 | minimal effect on cell growth | 100 | cytotoxic/cytostatic | tolerated
Cc1nnc(N(C)CC2CCN(CC(C)O)CC2)c(C#N)c1C (centres unmarked) [CU9] | – | – | – | – | – | – | tolerated
